Source: publication PMC4669708 (Cell Death & Disease, 2015)

Assay: Chemical proteomics, c-ponatinib drug pull-down, LCMS-MS
Type: binding, human
Conditions: c-ponatinib matrix, competition with free ponatinib; cells 2 h TNF-α
Experimental: Drug-affinity matrices were prepared as described previously.[51] In brief, 25 nmol of c-ponatinib were immobilized on 50 μl NHS-activated Sepharose 4 Fast Flow beads (GE Healthcare Bio-Sciences AB, Uppsala, Sweden). 10 mg whole cell lysate was used as protein input per replicate. Affinity chromatography and elution were performed in duplicate. After elution, the enriched proteins were reduced with dithiothreitol (DTT) and cysteine residues were alkylated by incubation with iodoacetamide. The samples were digested with modified porcine trypsin (Promega). Five percent of the digested eluates were purified and concentrated by C18 reversed-phase material. Subsequently, samples were analyzed in duplicates by gel-free one-dimensional LCMS.
Precursor and MS/MS peaks were extracted from the RAW files and saved in the MGF format using msconvert tool (ProteoWizard Library v2.1.2708, www.proteowizard.sourceforge.net) for subsequent protein identification. […] The initial peptide identifications were used to deduce independent linear transformations for precursor and fragment masses that would minimize the mean square deviation of measured masses from theoretical. […] A false discovery rate of <1% for protein identifications and <0.1% for peptides (including the ones exported with lower scores) was determined by applying the same procedure against a database of reversed protein sequences. […]

Compound: Cc1ccc(C(=O)Nc2ccc(CN3CCN(C)CC3)c(C(F)(F)F)c2)cc1C#Cc1cnc2cccnn12 [ponatinib, Ponatinib]
- kinases identified as specific binders (number): 38
- non-kinase proteins identified as specific binders (number): 22
